Measurements from US4599352A, “Antineoplastic platinum (IV) complexes and compositions” (priority 1984, dated 1986).

Key:
[1] = system: SC Implanted L1210 Leukemia; test: Activity against SC implanted L1210 leukemia following intravenous administration, once daily Days 1-5 (Table 5); assay type: in vivo, CD2Fl male mice
Description: (§1) Biological properties of the compounds of the present invention were determined following the protocol described in Cancer Chemotherapy Reports, Vol. 3, No. 3, 1972 which report is incorporated herein by reference.
In another type of experiment the same platinum complexes were directly compared against the SC implanted L1210 following intravenous administration (Table 5).
This experiment (A8-00004 3LE32) was conducted at the Southern Research Institute, Birmingham, Ala. under the supervision of Dr. Daniel Griswold. The protocols were the same as those published previously (Attachment 11). 10^6 cells were implanted subcutaneously in CD2Fl male mice on Day 0. Drug treatments were given intravenously once daily at the doses indicated on Days 1-5 after tumor implantation. The dosage range tested included the highest and lowest doses indicated in the Table as well as intermediate values which were determined by multiplying each dose in turn by 0.5 starting with the highest dose. The diluent was saline except for NSC-271674 for which 5% sodium bicarbonate was used. All drugs were prepared fresh on the day of injection, and all were administered in solution. Median survival times for both control and drug-treated mice were determined and expressed as a percentage (% T/C). Body weights were determined on Day 5 and expressed as a weight difference (body weight of the drug-treated animals minus that of the control animals in grams) (T-C).

IP L1210 leukemia = test: Mouse optimal (highest tolerated) dose, IP L1210 leukemia, Days 1, 5 and 9 schedule (Table 7); assay type: in vivo
Text: *IP L1210 leukemia, Days 1, 5 and 9 schedule. Highest tolerated dose in a
least 2 of 3 experiments (i.e,. animal weight difference (testcontrol)

[2] = system: IP-Implanted L1210 Leukemia; test: Dose-response against IP-implanted L1210 leukemia, IP treatment Days 1, 5 and 9, 30-day test (Table 2); assay type: in vivo, CD2Fl male mice
Description: as §1
(§2) This experiment (A8-00005 3LE31) was conducted at the Southern Research Institute, Birmingham, Ala. under the supervision of Dr. Daniel Griswold. The protocols were the same as those published previously (Geran et al., Cancer Chemotherapy Reports 3: No. 2, 1972 [Attachment 11]). 10^5 cells were implanted intraperitoneally in CD2Fl male mice on Day 0. Drug treatments were given intraperitoneally as single injections at the doses indicated on Days 1, 5 and 9 after tumor implantation. The diluent was saline except for NSC-271674 where 5% sodium bicarbonate was used. All drugs were prepared fresh on the day of injection, and all were administered in solution. Median survival times for both control and drug-treated mice were determined and expressed as a percentage (% T/C). Body weights were determined on Day 5 and expressed as a weight difference (body weight of the drug-treated animals minus that of the control animals in grams) (T-C). The diluent control animals lived a median of 8.4 days and gained 1.9 grams by Day 5 in this experiment. All animals, including Day 30 survivors, were used in the calculation of median survival times. The log10 change in tumor burden refers to the net log change in viable tumor cell population at the end of therapy (Rx) as compared to the start of therapy; e.g., a […] means that there was a […] and a 3 log change means there was a 1000-fold increase in tumor burden at the end of therapy. The tumor burden at the start of therapy was about 6.1×10^5 cells in this experiment.

[3] = system: IP-Implanted L1210/Cisplatin; test: Comparison of isomers: long term survivors and weight differences in treating IP-implanted L1210/Cisplatin (Table 6); assay type: in vivo, mice
Text: Comparative data for the others are as follows: 27 for trans d, 27 for trans d l and 13 for cis. […] The higher the ratio the more convenient it is to prepare a formulation for intravenous administration to patients which is shown in Table 7.

IP L1210 = test: Activity against IP-implanted L1210 leukemia sensitive to cisplatin, 30 day test (Table 3); assay type: in vivo, Female CD2Fl mice
Description: as §1
Other known mechanisms of resistance for other classes of agents, such as gene amplification or target enzyme change or amplication, also need to be explored. The experiments summarized in Table 3 were conducted at the same time against both sublines using the same drug preparations. […] These experiments were repeated in a second laboratory as documented in Table 4. However, in these experiments the animals were held for 60 rather than 30 days to evaluate whether or not long-term survivors are produced after drug treatment in a more challenging setting.
as §2
These experiments (A8-00008 3LE31 and A8-00001 3DP31) were conducted concurrently at the Southern Research Institute, Birmingham, Ala. under the supervision of Dr. Daniel Griswold. See Table 4 for experimental details. The diluent control animals bearing L1210 leukemia lived a median of 8.6 days and gained 1.3 grams by Day 5. […] Female CD2Fl mice were used for these experiments.

[4] = system: L1210 and L1210/Cisplatin leukemia; test: Total number of long-term survivors in Tables 2-4; assay type: in vivo, CD2Fl mice
Text: If one summarizes the data in Tables 2-4 by totalling the number of long-term survivors, unexpected differences among the isomers become apparent. For example, the trans l compound produced 30 long-term survivors.

## Tetrachloro-cis-1,2-cyclohexanediamine platinum (IV)
[1]; 5 mg/kg/inj IV
  Body Weight Difference: -3.3 Grams
  Median % T/C: 133%
  Median Survival Time: 13.7 days
[1]; IV once daily Days 1-5
  Optimal Dose: 5.0 mg/kg/inj
IP L1210 leukemia
  Mouse Optimal Dose (highest tolerated dose in at least 2 of 3 experiments): 8 mg/kg
[2]; 1 mg/kg/dose IP
  30-Day Survivors/Total: 0/6
  Approx. Log10 Change in Tumor Burden at End of Rx: ~2.8 log10
  Body Weight Difference: -0.8 Grams
  Median % T/C: 128%
[2]; 2 mg/kg/dose IP
  30-Day Survivors/Total: 0/6
  Approx. Log10 Change in Tumor Burden at End of Rx: ~2.6 log10
  Body Weight Difference: -1.3 Grams
  Median % T/C: 140%
[2]; 4 mg/kg/dose IP
  30-Day Survivors/Total: 0/6
  Approx. Log10 Change in Tumor Burden at End of Rx: ~2.4 log10
  Body Weight Difference: -1.1 Grams
  Median % T/C: 152%
[2]; 8 mg/kg/dose IP
  30-Day Survivors/Total: 0/6
  Approx. Log10 Change in Tumor Burden at End of Rx: ~-0.7 log10
  Body Weight Difference: -1.8 Grams
  Median % T/C: 205%
[2]; 16 mg/kg/dose IP
  30-Day Survivors/Total: 2/6
  Approx. Log10 Change in Tumor Burden at End of Rx: ~-5.7 log10
  Body Weight Difference: -3.6 Grams
  Median % T/C: 333%
[2]; 16 mg/kg/dose IP, listed as cis
  Body Weight Difference: less than -4 Grams
[2]; day 1, 5 and 9 schedule
  Optimal dose (dose producing best therapeutic response): 16 mg/kg/injection
[3]
  Ratio of 2/1 (weight difference / long-term survivors): 1.40
  Total Grams of Weight Difference: -5.6 Grams
  Total number of long-term survivors: 4
IP L1210; 1 mg/kg/dose
  30 Day Survivors/Total: 0/6
  Approx. Log10 Change in Tumor Burden at End of RX: ~2.8 log10
  Median % T/C: 125%
IP L1210; 2 mg/kg/dose
  30 Day Survivors/Total: 0/6
  Approx. Log10 Change in Tumor Burden at End of RX: ~2.6 log10
  Median % T/C: 139%
IP L1210; 4 mg/kg/dose
  30 Day Survivors/Total: 0/6
  Approx. Log10 Change in Tumor Burden at End of RX: ~2.4 log10
  Median % T/C: 148%
IP L1210; 8 mg/kg/dose
  30 Day Survivors/Total: 2/6
  Approx. Log10 Change in Tumor Burden at End of RX: ~-5.9 log10
  Median % T/C: 325%
IP L1210; 16 mg/kg/dose
  30 Day Survivors/Total: 1/6
  Approx. Log10 Change in Tumor Burden at End of RX: ~-5.7 log10
  Median % T/C: 267%
[4]; Tables 2-4 summed
  Total number of long-term survivors: 13
[4]; mouse, in vivo
  Relative biological activity: relatively lower biological activity
